The IC50 is the midpoint of a concentration-inhibition curve.

One experiment deals with alkaline phosphatase activity in T47D cells. The experiment in a line: Effects of progestins and antiprogestins on alkaline phosphatase activity in T47D cells. The format is cell-based. The conditions noted are these: Homo sapiens, T47D, 24 h; reference antiprogestin, in the presence of 1 nM progesterone; typical value. The procedure:
Effects of Progestins and Antiprogestins on Alkaline Phosphatase Activity in T47D Cells
This example was performed to identify progestins or antiprogestins by determining a compound's effect on alkaline phosphatase activity in T47D cells.
Culture medium: DMEM:F12 (1:1) (GIBCO, BRL) supplemented with 5% (v/v) charcoal stripped fetal bovine serum (not heat-inactivated), 100 U/mL penicillin, 100 μg/mL streptomycin, and 2 mM the GlutaMax™ reagent (GIBCO, BRL).
Alkaline phosphatase assay buffer: • I. 0.1M Tris-HCl, pH 9.8, containing 0.2% the Triton® X-100 reagent • II. 0.1 M Tris-HCl, pH 9.8, containing 4 mM p-nitrophenyl phosphate (Sigma).
Frozen T47D cells were thawed in a 37° C. water bath and diluted to 280,000 cells/mL in culture medium. To each well in a 96-well plate (Falcon, Becton Dickinson Labware), 180 μL of diluted cell suspension was added. Twenty μL of reference or test compounds diluted in the culture medium was then added to each well. When testing for progestin antagonist activity, reference antiprogestins or test compounds were added in the presence of 1 nM progesterone. The cells were incubated at 37° C. in a 5% CO2/humidified atmosphere for 24 hours. NOTE: For high throughput screening, one concentration of each compound was tested at 0.3 μg/mL. Based on an average molecular weight of 300 g/mol for the compounds in the library, the concentration was approximately 1 μM. Subsequently, active compounds were tested in dose response assays to determine EC50 and IC50.
At the end of treatment, the medium was removed from the plate. Fifty μL of assay buffer I was added to each well. The plates were shaken in a titer plate shaker for 15 minutes. 150 μL of assay buffer II was then added to each well. Optical density measurements were taken at 5 minute intervals for 30 minutes at a test wavelength of 405 nm.
For reference and test compounds, a dose response curve was generated for dose (X-axis) vs. the rate of enzyme reaction (slope) (Y-axis). Square root-transformed data was used for analysis of variance and nonlinear dose response curve fitting for both agonist and antagonist modes. Huber weighting was used to down-weight the effects of outliners. EC50 or IC50 values were calculated from the retransformed values. JMP software (SAS Institute, Inc.) was used for both one-way analysis of variance and non-4 linear dose response analysis in both single dose and dose response studies.
Progesterone and trimegestone are reference progestins known in the art and typically show an EC50 of about 0.1 nM to about 2.0 nM.
Regarding `CC#C[C@]1(O)CC[C@H]2[C@@H]3CCC4=CC(=O)CCC4=C3[C@@H](c3ccc(N(C)C)cc3)C[C@@]21C` [RU486, reference compound], the IC50 is 0.1 to 2 nM.

Still in this experiment, the particulars now being: Homo sapiens; T47D alkaline phosphatase assay; antagonist mode in the presence of 1 nM progesterone; 24 hours.
Consider `Cn1c(C#N)ccc1-c1ccc(S(=O)(=O)N2CCOCC2)cc1` [Example 12, 1-methyl-5-[4-(morpholin-4-ylsulfonyl)phenyl]-1H-pyrrole-2-carbonitrile], for which the IC50 came out at 189 nM.
Still for that read-out and setting: in the case of `CC(C)NS(=O)(=O)c1ccc(-c2ccc(C#N)n2C)cc1` [Example 5, 4-(5-cyano-1-methyl-1H-pyrrol-2-yl)-N-isopropylbenzenesulfonamide] it was 27.5 nM; in that of `CCCNS(=O)(=O)c1ccc(-c2ccc(C#N)n2C)cc1OC(F)(F)F` [Example 52, 4-(5-cyano-1-methyl-1H-pyrrol-2-yl)-N-propyl-2-(trifluoromethoxy)benzenesulfonamide], 8.4 nM; in that of `CC(C)NS(=O)(=O)c1ccc(-c2ccc(C#N)n2C)cc1OC(F)(F)F` [Example 51, 4-(5-cyano-1-methyl-1H-pyrrol-2-yl)-N-isopropyl-2-(trifluoromethoxy)benzenesulfonamide], 32.5 nM.
Still for that read-out and setting: in the case of `Cn1c(C#N)ccc1-c1ccc(S(=O)(=O)NCC2CC2)c(OC(F)(F)F)c1` [Example 55, 4-(5-cyano-1-methyl-1H-pyrrol-2-yl)-N-(cyclopropylmethyl)-2-(trifluoromethoxy)benzenesulfonamide] it was 12.3 nM; in that of `Cn1c(C#N)ccc1-c1ccc(S(=O)(=O)N2CCCC2)cc1` [Example 10, 1-methyl-5-[4-(pyrrolidin-1-ylsulfonyl)phenyl]-1H-pyrrole-2-carbonitrile], 146 nM.
The same measure, in the same setting: in the case of `Cn1c(C#N)ccc1-c1ccc(S(=O)(=O)N2CCCCC2)cc1` [Example 11, 1-methyl-5-[4-(piperidin-1-ylsulfonyl)phenyl]-1H-pyrrole-2-carbonitrile] it was 132 nM.
For `Cn1c(C#N)ccc1-c1ccc(S(N)(=O)=O)cc1` [Example 63, 4-(5-cyano-1-methyl-1H-pyrrol-2-yl)benzenesulfonamide], the IC50 amounted to 99.5 nM.
As for `Cn1c(C#N)ccc1-c1ccc(S(N)(=O)=O)cc1F` [Example 30, 4-(5-cyano-1-methyl-1H-pyrrol-2-yl)-3-fluorobenzenesulfonamide], the IC50 turned out to be 91 nM.
As for `CNS(=O)(=O)c1ccc(-c2ccc(C#N)n2C)c(F)c1` [Example 31, 4-(5-cyano-1-methyl-1H-pyrrol-2-yl)-3-fluoro-N-methylbenzenesulfonamide], the half-maximal inhibitory concentration (IC50) stood at 8.5 nM.
The same measure, in the same setting: in the case of `CC(C)NS(=O)(=O)c1ccc(-c2ccc(C#N)n2C)cc1F` [Example 42, 4-(5-cyano-1-methyl-1H-pyrrol-2-yl)-2-fluoro-N-isopropylbenzenesulfonamide] it was 48.1 nM; in that of `CCCNS(=O)(=O)c1ccc(-c2ccc(C#N)n2C)cc1C(F)(F)F` [Example 25, 4-(5-cyano-1-methyl-1H-pyrrol-2-yl)-N-propyl-2-(trifluoromethyl)benzenesulfonamide], 17.3 nM.
Same read-out and setting: in the case of `CNS(=O)(=O)c1ccc(-c2ccc(C#N)n2C)cc1` [Example 1, 4-(5-cyano-1-methyl-1H-pyrrol-2-yl)-N-methylbenzenesulfonamide] it was 13.9 nM; in that of `CCN(CC)S(=O)(=O)c1ccc(-c2ccc(C#N)n2C)cc1F` [Example 41, 4-(5-cyano-1-methyl-1H-pyrrol-2-yl)-N,N-diethyl-2-fluorobenzenesulfonamide], 62.2 nM.
The same measure, in the same setting: in the case of `CC(C)CNS(=O)(=O)c1ccc(-c2ccc(C#N)n2C)cc1` [Example 6, 4-(5-cyano-1-methyl-1H-pyrrol-2-yl)-N-isobutylbenzenesulfonamide] it was 47.9 nM.
For the compound `Cn1c(C#N)ccc1-c1ccc(S(=O)(=O)NCC(F)(F)F)cc1` [Example 16, 4-(5-cyano-1-methyl-1H-pyrrol-2-yl)-N-(2,2,2-trifluoroethyl)benzenesulfonamide], the IC50 was 40.8 nM.
For `CCNS(=O)(=O)c1ccc(-c2ccc(C#N)n2C)cc1C(F)(F)F` [Example 24, 4-(5-cyano-1-methyl-1H-pyrrol-2-yl)-N-ethyl-2-(trifluoromethyl)benzenesulfonamide], the IC50 stood at 45.8 nM.
Same read-out and setting: in the case of `Cn1c(C#N)ccc1-c1ccc(S(=O)(=O)NC2CC2)c(OC(F)(F)F)c1` [Example 54, 4-(5-cyano-1-methyl-1H-pyrrol-2-yl)-N-cyclopropyl-2-(trifluoromethoxy)benzenesulfonamide] it was 71.7 nM; in that of `CNS(=O)(=O)c1cc(F)c(-c2ccc(C#N)n2C)cc1F` [Example 59, 4-(5-cyano-1-methyl-1H-pyrrol-2-yl)-2,5-difluoro-N-methylbenzenesulfonamide], 36.1 nM; in that of `Cn1c(C#N)ccc1-c1ccc(S(=O)(=O)NCC2CC2)c(C(F)(F)F)c1` [Example 28, 4-(5-cyano-1-methyl-1H-pyrrol-2-yl)-N-(cyclopropylmethyl)-2-(trifluoromethyl)benzenesulfonamide], 34.9 nM.
Still for that read-out and setting: in the case of `Cn1c(C#N)ccc1-c1ccc(S(=O)(=O)N2CCCC2)c(OC(F)(F)F)c1` [Example 53, 1-methyl-5-[4-(pyrrolidin-1-ylsulfonyl)-3-(trifluoromethoxy)phenyl]-1H-pyrrole-2-carbonitrile] it was 22.7 nM; in that of `Cn1c(C#N)ccc1-c1ccc(S(=O)(=O)N2CCCC2)c(C(F)(F)F)c1` [Example 26, 1-methyl-5-[4-(pyrrolidin-1-ylsulfonyl)-3-(trifluoromethyl)phenyl]-1H-pyrrole-2-carbonitrile], 115 nM.
Still for that read-out and setting: in the case of `Cn1c(C#N)ccc1-c1ccc(S(=O)(=O)NC2CCC2)c(F)c1` [Example 45, 4-(5-cyano-1-methyl-1H-pyrrol-2-yl)-N-cyclobutyl-2-fluorobenzenesulfonamide] it was 99.4 nM; in that of `Cn1c(C#N)ccc1-c1ccc(S(=O)(=O)n2cccc2)cc1` [Example 18, 1-methyl-5-[4-(1H-pyrrol-1-ylsulfonyl)phenyl]-1H-pyrrole-2-carbonitrile], 48.1 nM.
`Cn1c(C#N)ccc1-c1ccc(S(N)(=O)=O)c(C(F)(F)F)c1` [Example 19, 4-(5-cyano-1-methyl-1H-pyrrol-2-yl)-2-(trifluoromethyl)benzenesulfonamide]: the IC50 is 35.8 nM.
`CCCNS(=O)(=O)c1ccc(-c2ccc(C#N)n2C)cc1` [Example 4, 4-(5-cyano-1-methyl-1H-pyrrol-2-yl)-N-propylbenzenesulfonamide]: the IC50 stood at 23.8 nM.
Same read-out and setting: in the case of `CCNS(=O)(=O)c1ccc(-c2ccc(C#N)n2C)cc1OC(F)(F)F` [Example 49, 4-(5-cyano-1-methyl-1H-pyrrol-2-yl)-N-ethyl-2-(trifluoromethoxy)benzenesulfonamide] it was 122 nM; in that of `Cn1c(C#N)ccc1-c1ccc(S(=O)(=O)N2CCCC2)cc1F` [Example 37, 5-[2-fluoro-4-(pyrrolidin-1-ylsulfonyl)phenyl]-1-methyl-1H-pyrrole-2-carbonitrile], 151 nM; in that of `CN(C)S(=O)(=O)c1ccc(-c2ccc(C#N)n2C)cc1OC(F)(F)F` [Example 48, 4-(5-cyano-1-methyl-1H-pyrrol-2-yl)-N,N-dimethyl-2-(trifluoromethoxy)benzenesulfonamide], 62.7 nM.
`Cn1c(C#N)ccc1-c1ccc(S(=O)(=O)NC2CCC2)cc1F` [Example 40, 4-(5-cyano-1-methyl-1H-pyrrol-2-yl)-N-cyclobutyl-3-fluorobenzenesulfonamide]: the half-maximal inhibitory concentration (IC50) came out at 18.1 nM.
Still for that read-out and setting: in the case of `CC(C)NS(=O)(=O)c1ccc(-c2ccc(C#N)n2C)cc1C(F)(F)F` [Example 23, 4-(5-cyano-1-methyl-1H-pyrrol-2-yl)-N-isopropyl-2-(trifluoromethyl)benzenesulfonamide] it was 77.1 nM; in that of `CN(C)S(=O)(=O)c1ccc(-c2ccc(C#N)n2C)c(F)c1` [Example 32, 4-(5-cyano-1-methyl-1H-pyrrol-2-yl)-3-fluoro-N,N-dimethylbenzenesulfonamide], 128 nM.

The same experiment, now with this note: T47D alkaline phosphatase assay; antagonist mode in the presence of 1 nM progesterone; 24 hours.
In the case of `Cn1c(C#N)ccc1-c1ccc(S(=O)(=O)NC(C)(C)C)c(OC(F)(F)F)c1` [Example 57, N-tert-butyl-4-(5-cyano-1-methyl-1H-pyrrol-2-yl)-2-(trifluoromethoxy)benzenesulfonamide], the “Active Dose” value amounted to 30 nM.
On the same count and under the same terms, in the case of `Cn1c(C#N)ccc1-c1ccc(S(=O)(=O)NC2CC2)c(F)c1` [Example 43, 4-(5-cyano-1-methyl-1H-pyrrol-2-yl)-N-cyclopropyl-2-fluorobenzenesulfonamide] it was 30 nM.
